Assays:
[1] = target: GDP-bound HRAS wild-type protein (Homo sapiens, UniProt P01112); experiment: Binding to HRAS by surface plasmon resonance (SPR), Single Cycle Kinetics; conditions: KD ratio, GDP-bound HRAS wild-type vs GDP-bound KRAS wild-type, SPR
[2] = target: GDP-bound NRAS wild-type protein (Homo sapiens, UniProt P01111); experiment: Binding to NRAS by surface plasmon resonance (SPR), Single Cycle Kinetics; conditions: KD ratio, GDP-bound NRAS wild-type vs GDP-bound KRAS wild-type, SPR
Sequence of GDP-bound NRAS wild-type protein (P01111 whole entry): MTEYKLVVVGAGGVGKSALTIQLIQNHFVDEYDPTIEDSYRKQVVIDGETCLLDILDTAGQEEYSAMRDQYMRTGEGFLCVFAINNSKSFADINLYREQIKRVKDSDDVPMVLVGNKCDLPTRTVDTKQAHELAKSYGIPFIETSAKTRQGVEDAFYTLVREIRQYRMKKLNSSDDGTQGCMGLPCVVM

Sequence of GDP-bound HRAS wild-type protein (P01112 whole entry): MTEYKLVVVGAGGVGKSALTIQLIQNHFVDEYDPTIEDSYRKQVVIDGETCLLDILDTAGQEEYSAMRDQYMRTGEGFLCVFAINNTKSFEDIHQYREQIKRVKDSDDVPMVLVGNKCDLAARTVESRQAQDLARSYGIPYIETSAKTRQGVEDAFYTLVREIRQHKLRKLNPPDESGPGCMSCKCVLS

SMILES	HRAS/KRAS (ratio of KD value for HRAS to KD value for KRAS) [1]	NRAS/KRAS (ratio of KD value for NRAS to KD value for KRAS) [2]
CCCN(C)C(=O)[C@@H]1CC(=O)N(C)[C@@H](C)C(=O)N[C@@H]([C@@H](C)CC)C(=O)N(C)CC(=O)N(C)[C@H]2C/C=C\CCN(C2=O)[C@@H](Cc2ccc(C(F)(F)F)cc2)C(=O)N(C)CC(=O)N[C@@H](CCc2cc(F)c(C(F)(F)F)c(F)c2)C(=O)N2C[C@H](OCC)C[C@H]2C(=O)NC2(CC(F)(F)C2)C(=O)N(C)[C@@H](C2CCCC2)C(=O)N1C [PP1731]	A (a compound having 10 or more and less than 20 is denoted as A)	A (a compound having 10 or more and less than 20 is denoted as A)
CCCN(C)C(=O)[C@@H]1CC(=O)N(C)[C@@H](CC)C(=O)N[C@@H]([C@@H](C)CC)C(=O)N(C)CC(=O)N(C)[C@H]2C/C=C\CCN(C2=O)[C@@H](Cc2ccc(C(F)(F)F)cc2)C(=O)N(C)CC(=O)N[C@@H](CCc2cc(F)c(C(F)(F)F)c(F)c2)C(=O)N2C[C@H](OCC)C[C@H]2C(=O)NC2(CC(F)(F)C2)C(=O)N(C)[C@@H](C2CCCC2)C(=O)N1C [PP1732]	A (a compound having 10 or more and less than 20 is denoted as A)	AA (a compound having 20 or more is denoted as AA)
CCCN(C)C(=O)[C@@H]1CC(=O)N(C)[C@@H](CC(F)F)C(=O)N[C@@H]([C@@H](C)CC)C(=O)N(C)CC(=O)N(C)[C@H]2C/C=C\CCN(C2=O)[C@@H](Cc2ccc(C(F)(F)F)cc2)C(=O)N(C)CC(=O)N[C@@H](CCc2cc(F)c(C(F)(F)F)c(F)c2)C(=O)N2C[C@H](OCC)C[C@H]2C(=O)NC2(CC(F)(F)C2)C(=O)N(C)[C@@H](C2CCCC2)C(=O)N1C [PP1733]	A (a compound having 10 or more and less than 20 is denoted as A)	A (a compound having 10 or more and less than 20 is denoted as A)
CCCN(C)C(=O)[C@@H]1CC(=O)N(C)[C@@H](CC(F)(F)F)C(=O)N[C@@H]([C@@H](C)CC)C(=O)N(C)CC(=O)N(C)[C@H]2C/C=C\CCN(C2=O)[C@@H](Cc2ccc(C(F)(F)F)cc2)C(=O)N(C)CC(=O)N[C@@H](CCc2cc(F)c(C(F)(F)F)c(F)c2)C(=O)N2C[C@H](OCC)C[C@H]2C(=O)NC2(CC(F)(F)C2)C(=O)N(C)[C@@H](C2CCCC2)C(=O)N1C [PP1734]	A (a compound having 10 or more and less than 20 is denoted as A)	A (a compound having 10 or more and less than 20 is denoted as A)
CCC[C@H]1C(=O)N[C@@H]([C@@H](C)CC)C(=O)N(C)CC(=O)N(C)[C@H]2C/C=C\CCN(C2=O)[C@@H](Cc2ccc(C(F)(F)F)cc2)C(=O)N(C)CC(=O)N[C@@H](CCc2cc(F)c(C(F)(F)F)c(F)c2)C(=O)N2C[C@H](OCC)C[C@H]2C(=O)NC2(CC(F)(F)C2)C(=O)N(C)[C@@H](C2CCCC2)C(=O)N(C)[C@H](C(=O)N(C)CC)CC(=O)N1C [PP1735]	A (a compound having 10 or more and less than 20 is denoted as A)	AA (a compound having 20 or more is denoted as AA)
CCC[C@H]1C(=O)N[C@@H]([C@@H](C)CC)C(=O)N(C)CC(=O)N(C)[C@H]2C/C=C\CCN(C2=O)[C@@H](Cc2ccc(C(F)(F)F)cc2)C(=O)N(C)CC(=O)N[C@@H](CCc2cc(F)c(C(F)(F)F)c(F)c2)C(=O)N2C[C@H](OCC)C[C@H]2C(=O)NC2(CC(F)(F)C2)C(=O)N(C)[C@@H](C2CCCC2)C(=O)N(C)[C@H](C(=O)N(C)CCC)CC(=O)N1C [PP1736]	A (a compound having 10 or more and less than 20 is denoted as A)	A (a compound having 10 or more and less than 20 is denoted as A)
C#CC[C@H]1C(=O)N[C@@H]([C@@H](C)CC)C(=O)N(C)CC(=O)N(C)[C@H]2C/C=C\CCN(C2=O)[C@@H](Cc2ccc(C(F)(F)F)cc2)C(=O)N(C)CC(=O)N[C@@H](CCc2cc(F)c(C(F)(F)F)c(F)c2)C(=O)N2C[C@H](OCC)C[C@H]2C(=O)NC2(CC(F)(F)C2)C(=O)N(C)[C@@H](C2CCCC2)C(=O)N(C)[C@H](C(=O)N(C)CCC)CC(=O)N1C [PP1737]	A (a compound having 10 or more and less than 20 is denoted as A)	A (a compound having 10 or more and less than 20 is denoted as A)
CCO[C@@H]1C[C@H]2C(=O)NC3(CC(F)(F)C3)C(=O)N(C)[C@@H](C3CCCC3)C(=O)N(C)[C@H](C(=O)N(C)CC)CC(=O)N(C)[C@@H](CC3CC3)C(=O)N[C@@H]([C@@H](C)CC)C(=O)N(C)CC(=O)N(C)[C@H]3C/C=C\CCN(C3=O)[C@@H](Cc3ccc(C(F)(F)F)cc3)C(=O)N(C)CC(=O)N[C@@H](CCc3cc(F)c(C(F)(F)F)c(F)c3)C(=O)N2C1 [PP1738]	A (a compound having 10 or more and less than 20 is denoted as A)	AA (a compound having 20 or more is denoted as AA)
CCCN(C)C(=O)[C@@H]1CC(=O)N(C)[C@@H](CC2CC2)C(=O)N[C@@H]([C@@H](C)CC)C(=O)N(C)CC(=O)N(C)[C@H]2C/C=C\CCN(C2=O)[C@@H](Cc2ccc(C(F)(F)F)cc2)C(=O)N(C)CC(=O)N[C@@H](CCc2cc(F)c(C(F)(F)F)c(F)c2)C(=O)N2C[C@H](OCC)C[C@H]2C(=O)NC2(CC(F)(F)C2)C(=O)N(C)[C@@H](C2CCCC2)C(=O)N1C [PP1739]	AA (a compound having 20 or more is denoted as AA)	AA (a compound having 20 or more is denoted as AA)
CCCC[C@H]1C(=O)N[C@@H]([C@@H](C)CC)C(=O)N(C)CC(=O)N(C)[C@H]2C/C=C\CCN(C2=O)[C@@H](Cc2ccc(C(F)(F)F)cc2)C(=O)N(C)CC(=O)N[C@@H](CCc2cc(F)c(C(F)(F)F)c(F)c2)C(=O)N2C[C@H](OCC)C[C@H]2C(=O)NC2(CC(F)(F)C2)C(=O)N(C)[C@@H](C2CCCC2)C(=O)N(C)[C@H](C(=O)N(C)C)CC(=O)N1C [PP1740]	A (a compound having 10 or more and less than 20 is denoted as A)	A (a compound having 10 or more and less than 20 is denoted as A)
CCO[C@@H]1C[C@H]2C(=O)NC3(CC(F)(F)C3)C(=O)N(C)[C@@H](C3CCCC3)C(=O)N(C)[C@H](C(=O)N(C)C)CC(=O)N(C)[C@@H](CC(C)C)C(=O)N[C@@H]([C@@H](C)CC)C(=O)N(C)CC(=O)N(C)[C@H]3C/C=C\CCN(C3=O)[C@@H](Cc3ccc(C(F)(F)F)cc3)C(=O)N(C)CC(=O)N[C@@H](CCc3cc(F)c(C(F)(F)F)c(F)c3)C(=O)N2C1 [PP1741]	B (a compound having 3 or more and less than 10 is denoted as B)	A (a compound having 10 or more and less than 20 is denoted as A)
CCO[C@@H]1C[C@H]2C(=O)NC3(CC(F)(F)C3)C(=O)N(C)[C@@H](C3CCCC3)C(=O)N(C)[C@H](C(=O)N(C)C)CC(=O)N(C)[C@@H](CC3CCC3)C(=O)N[C@@H]([C@@H](C)CC)C(=O)N(C)CC(=O)N(C)[C@H]3C/C=C\CCN(C3=O)[C@@H](Cc3ccc(C(F)(F)F)cc3)C(=O)N(C)CC(=O)N[C@@H](CCc3cc(F)c(C(F)(F)F)c(F)c3)C(=O)N2C1 [PP1742]	A (a compound having 10 or more and less than 20 is denoted as A)	A (a compound having 10 or more and less than 20 is denoted as A)
CCCN(C)C(=O)[C@@H]1CC(=O)N(C)[C@@H](COC)C(=O)N[C@@H]([C@@H](C)CC)C(=O)N(C)CC(=O)N(C)[C@H]2C/C=C\CCN(C2=O)[C@@H](Cc2ccc(C(F)(F)F)cc2)C(=O)N(C)CC(=O)N[C@@H](CCc2cc(F)c(C(F)(F)F)c(F)c2)C(=O)N2C[C@H](OCC)C[C@H]2C(=O)NC2(CC(F)(F)C2)C(=O)N(C)[C@@H](C2CCCC2)C(=O)N1C [PP1743]	A (a compound having 10 or more and less than 20 is denoted as A)	AA (a compound having 20 or more is denoted as AA)
CCCOC[C@H]1C(=O)N[C@@H]([C@@H](C)CC)C(=O)N(C)CC(=O)N(C)[C@H]2C/C=C\CCN(C2=O)[C@@H](Cc2ccc(C(F)(F)F)cc2)C(=O)N(C)CC(=O)N[C@@H](CCc2cc(F)c(C(F)(F)F)c(F)c2)C(=O)N2C[C@H](OCC)C[C@H]2C(=O)NC2(CC(F)(F)C2)C(=O)N(C)[C@@H](C2CCCC2)C(=O)N(C)[C@H](C(=O)N(C)CCC)CC(=O)N1C [PP1744]	A (a compound having 10 or more and less than 20 is denoted as A)	A (a compound having 10 or more and less than 20 is denoted as A)
CCO[C@@H]1C[C@H]2C(=O)NC3(CC(C)(C)C3)C(=O)N(C)[C@@H](C3CCCC3)C(=O)N(C)[C@H](C(=O)N(C)C)CC(=O)N(C)[C@@H](CC)C(=O)N[C@@H]([C@@H](C)CC)C(=O)N(C)CC(=O)N(C)[C@H]3C/C=C\CCN(C3=O)[C@@H](Cc3ccc(C(F)(F)F)cc3)C(=O)N(C)CC(=O)N[C@@H](CCc3ccc(C(F)(F)F)c(Cl)c3)C(=O)N2C1 [PP1746]	A (a compound having 10 or more and less than 20 is denoted as A)	A (a compound having 10 or more and less than 20 is denoted as A)
CCO[C@@H]1C[C@H]2C(=O)NC3(CC(C)(C)C3)C(=O)N(C)[C@@H](C3CCCC3)C(=O)N(C)[C@H](C(=O)N(C)C)CC(=O)N(C)[C@@H](CC(F)F)C(=O)N[C@@H]([C@@H](C)CC)C(=O)N(C)CC(=O)N(C)[C@H]3C/C=C\CCN(C3=O)[C@@H](Cc3ccc(C(F)(F)F)cc3)C(=O)N(C)CC(=O)N[C@@H](CCc3ccc(C(F)(F)F)c(Cl)c3)C(=O)N2C1 [PP1747]	A (a compound having 10 or more and less than 20 is denoted as A)	A (a compound having 10 or more and less than 20 is denoted as A)

— patent US20250230193A1, “CYCLIC COMPOUND HAVING SELECTIVE KRAS INHIBITORY EFFECT ON HRAS AND NRAS” (CHUGAI SEIYAKU KABUSHIKI KAISHA, priority 2022, published 2025)
